Reference: EPA's ToxValDB 9.5 (doi:10.2903/j.efsa.2014.3560)
≈ marks a conversion by molar mass, not a printed value.

Tests used:
Rattus norvegicus = details: for NOAEL: reproduction developmental; for LD50: acute, oral, mortality
Apis mellifera = details: acute, duration: 48 hours, mortality
Bibionidae = details: chronic/long-term; duration: 28 days; M/F; development
Canidae = details: chronic; duration: 1 years; oral; Dog Other; clinical signs
Colinus virginianus = details: acute, oral, mortality
Lepomis macrochirus = details: acute; duration: 96 hours; mortality
Pimephales promelas = details: chronic/long-term
Aphidius rhopalosiphi = assay: LR50; higher = less toxic; details: not reported; mortality
Typhlodromus pyri = assay: LR50; higher = less toxic; details: chronic/long-term; duration: 7 days; mortality

Structure (SMILES)	NOAEL (Rattus norvegicus)	NOAEL (Rattus norvegicus; body weight)	LD50 (Anas platyrhynchos; short-term, oral, feed, mortality)	LD50 (Apis mellifera; dermal)	LD50 (Apis mellifera; oral, unspecified)	NOEC (Bibionidae)	NOAEL (Canidae)	LD50 (Colinus virginianus; diet)	LD50 (Colinus virginianus)	LC50 (Lepomis macrochirus)	NOEC (Pimephales promelas)	LD50 (Rattus norvegicus; F)	LD50 (Rattus norvegicus; M)	LC50 (Tagia sp.; acute, duration: 14 days, mortality)	NOEC (Tagia sp.; chronic/long-term, reproduction)	LR50 (Aphidius rhopalosiphi)	LR50 (Typhlodromus pyri)	NOEC (Anas platyrhynchos; reproductive, reproduction)
CC1(C)C(C=C(Cl)C(F)(F)F)C1C(=O)OC(C#N)c1cccc(Oc2ccccc2)c1 (stereo not drawn) [alpha-Cyhalothrin]	0.125 mg/kg-day	0.5 mg/kg-day																
CC1(C)[C@H](C(=O)O[C@H](C#N)c2cccc(Oc3ccccc3)c2)[C@@H]1/C=C(\Cl)C(F)(F)F [gamma-Cyhalothrin]		0.5 mg/kg-day	> 429 mg/kg-day	0.005 µg/piece	4.2 µg/piece	0.0469 µg/L	0.5 mg/kg-day	225 mg/kg-day	> 2000 mg/kg-day	0.0354 ng/mL (≈ 0.0787 nM)	0.0155 µg/L	> 55 mg/kg-day	> 50 mg/kg-day	> 1300 mg/kg	0.5 mg/kg	0.23 g/ha	0.0006 g/ha	
CC1(C)[C@H](/C=C(\Cl)C(F)(F)F)[C@@H]1C(=O)O[C@@H](C#N)c1cccc(Oc2ccccc2)c1 [lambda-Cyhalothrin]							0.5 mg/kg-day											1.35 mg/kg-day
